According to article PMC6318021 (Structure (London, England : 1993), 2018):

Target: Nurr1 (nuclear receptor related 1 protein) (Homo sapiens, UniProt P43354)
Assay: tryptophan fluorescence quenching
Assay type: binding

Chain of Nurr1 (nuclear receptor related 1 protein) (P43354 352-598): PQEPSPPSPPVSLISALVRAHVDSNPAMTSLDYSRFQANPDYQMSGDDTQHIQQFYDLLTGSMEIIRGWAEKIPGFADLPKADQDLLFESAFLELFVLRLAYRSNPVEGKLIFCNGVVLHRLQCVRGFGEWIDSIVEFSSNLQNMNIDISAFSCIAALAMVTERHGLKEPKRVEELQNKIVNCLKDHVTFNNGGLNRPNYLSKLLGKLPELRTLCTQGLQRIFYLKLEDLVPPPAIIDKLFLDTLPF

For `CCCCCCCC/C=C\CCCCCCCC(=O)O` [OA, oleic acid], which Kd is on record?
The Kd was 59 ± 15 µM.

`CCCCC/C=C\C/C=C\CCCCCCCC(=O)O` [LA, linoleic acid] was tested. Which Kd did it give?
The Kd was 101 ± 13 µM.
